Laboratory results from patent US8328898B2, “Environment-friendly carbon-nano synergistic complex fertilizers” (priority 2007, dated 2012).

Tests used:
[1] = tested on: winter wheat Jing411; assay: Winter wheat field experiment, Agricultural Science Research Institute of Daxing District; assay type: in vivo; conditions: for Production increasing rate (comparing with control): in vivo; for Average production per mu: winter wheat Jing411
Source text: (§1) Experiments below are preceded with general fertilizing amount, and using the same fertilizing amount and the same fertilizing methods.

[2] = tested on: corn Jiyuan No. 1; assay: Corn field experiment; assay type: in vivo; conditions: for Ear weight in the whole area: fresh weight of corn
Source text: Experiments below are preceded with general fertilizing amount, and using the same fertilizing amount and the same fertilizing methods. 2.

[3] = not told
[4] = tested on: winter wheat Beinong 9549; assay: Winter wheat field experiment, demonstration park of high quality agricultural products center; assay type: in vivo; conditions: for Increase rate: vs control; for Average production per mu: winter wheat Beinong 9549, repeated 3 times
Protocol: Experiments below are preceded with general fertilizing amount, and using the same fertilizing amount and the same fertilizing methods. […] The Agricultural Science Research Institute of […] District, Beijing • D. Qingyundian Station, the Agricultural Science Research Institute of […] District, Bejing • (2) Experimental protocols and production determination of winter wheat in every experimental site […] Production is determined on Jun.

[5] = tested on: winter wheat 9428; assay: Winter wheat field experiment, Qingyundian Station; assay type: in vivo; conditions: for Production per mu: winter wheat 9428
Source text: as §1

[6] = tested on: tomato Jinpengshengguan; assay: Tomato production experiment (Experiment 11); assay type: in vivo
[7] = tested on: Ventura celery; assay: Celery production experiment
[8] = tested on: eggplant; assay: Production increasing effects on eggplant (Experiment 9); assay type: in vivo
[9] = comparing with ordinary ammonium bicarbonate (ABC)
[10] = eggplant seedling, 0.0165 kg fertilizer per plant

NC(N)=O [URA, urea]
Production increasing rate (comparing with control) [1]: 0.28% | Average production per mu [1]: 328.67 kg | Ear weight in the whole area [2]: 38.1 kg | Production increasing rate comparing with urea ([2]; in vivo): 0% | Average of N2O—N annual emission flux [3]: 71.92 μg N2O/m^3-h | N2O—N annual emission flux range [3]: −197-2867 μg N2O/m^3-h | N2O—N emission flux/nitrogen fertilizer applied [3]: 1.98% | Increase rate [4]: 17.07% | Average production per mu [4]: 487 kg | Production increasing rate ([5]; control = 0): 10.39% | Production increasing rate ([5]; general fertilizer = 0): 5.99% | Production per mu [5]: 425 kg | Production increasing rate ([6]; control = 0): 9.80% | Average area production ([6]; during growth of tomato, repeated 6 times): 109.65 kg | Increasing rate comparing with urea ([7]; equal weight as urea): 0% | Average fresh weight of plants ([7]; equal weight of fertilizers): 11.55 kg/20 plants | Fresh weight of celery per mu ([7]; in vivo): 7703.85 kg | Increase rate comparing with control ([7]; in vivo): 30.2% | Production increased per mu ([7]; over control): 1787.56 kg

ammonium bicarbonate [ABC]
Production increasing rate (comparing with control) [1]: 3.33% | Average production per mu [1]: 338.69 kg | Ear weight in the whole area [2]: 39.6 kg | Production increasing rate comparing with ammonium bicarbonate ([2]; in vivo): 0% | Production increasing rate comparing with urea ([2]; in vivo): 4.07% | Increasing rate of eggplant fruit weight [8, 9]: 0% | Increasing rate of leaf number [8, 9]: 0% | Increasing rate of plant height [8, 9]: 0% | Leaf number 1 ([8]; eggplant seedling): 15 number | Leaf number 2 ([8]; eggplant seedling): 33 number | Leaf number 3 ([8]; eggplant seedling): 4 number | Leaf number 4 ([8]; eggplant seedling): 26 number | Leaf number 5 ([8]; eggplant seedling): 28 number | Leaf number 6 ([8]; eggplant seedling): 15 number | Leaf number 7 ([8]; eggplant seedling): 28 number | Plant height 1 [8, 10]: 64 cm | Plant height 2 [8, 10]: 64 cm | Plant height 3 [8, 10]: 32 cm | Plant height 4 [8, 10]: 75 cm | Plant height 5 [8, 10]: 65 cm | Plant height 6 [8, 10]: 61 cm | Plant height 7 [8, 10]: 62 cm | Average height ([8]; eggplant seedling, 7 plants): 56.72 cm | Average leaf number ([8]; eggplant seedling, 7 plants): 21.28 number | Eggplant fruit weight ([8]; in vivo): 1.46 kg | Increasing weight of eggplant fruit ([8]; over ordinary ammonium bicarbonate (ABC)): 0 kg | Increase rate [4]: 15.63% | Average production per mu [4]: 481 kg | Production increasing rate ([5]; control = 0): 3.12% | Production per mu [5]: 397 kg
